The values that follow come from patent publication US9801898B2, “Glutamate dehydrogenase 1 inhibitors and methods of treating cancer” (Emory University, priority 2015, dated 2017).

Data set [1] addresses T1, GDH1 (Homo sapiens, UniProt P00367). In words: GDH1 enzyme activity assay with purified GDH1. It is filed as biochemical. To be noted: for potency and specificity for GDH1 inhibition in comparison of purpurin, R162 and EGCG: in vitro and in cancer cells; for inhibitory effect on GDH1 enzyme activity in vitro: purified GDH1. Here is the method: (§1) GDH1 enzyme activity assay was performed. Total cell lysates (20 microg) or 100 ng of purified GDH1 was added to a reaction mixture containing 50 mM triethanolamine (pH 8.0), 100 mM ammoniumacetate, 100 microM NADPH, and 2.6 mM EDTA. […] GPx, SOD, TRX, GSR, and CAT enzyme activities were determined by using commercially available kits from Biovision according to the manufacturer's instructions. PRX enzyme activity was assayed by coupling its activity to oxidation of NADPH via TRXs.

The target in data set [2] is T1, GDH1. As to the kind of experiment: Tryptophan fluorescence binding assay. Particulars: purified GDH1, tryptophan fluorescence binding. The procedure: Purified GDH1 was incubated with increasing concentrations of purpurin.
The next data set in a line: Cell permeability. In kind it is in vitro ADME.
In data set [3] the target is T2, GPx1 (Homo sapiens, UniProt P07203).
T2 construct: made in house; host or cells: 293T cells (transfected)
T2 sequence (P07203 1-203): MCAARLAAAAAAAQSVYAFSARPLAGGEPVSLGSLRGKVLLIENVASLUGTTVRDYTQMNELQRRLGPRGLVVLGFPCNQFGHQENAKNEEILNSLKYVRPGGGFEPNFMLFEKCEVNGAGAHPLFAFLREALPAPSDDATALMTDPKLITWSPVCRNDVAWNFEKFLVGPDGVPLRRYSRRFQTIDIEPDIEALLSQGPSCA
As to the kind of experiment: Radiometric 14C-fumarate/14C-alpha-KG-GPx1 binding assay. The source says:
The beads were then washed with TBS buffer. The bead-bound GPx1 protein was eluted with 10 microg flag peptides, and radioactivity was detected by liquid scintillation counting.

The target of data set [4] is T2, GPx1. As to the kind of experiment: Activity of purified GPx1 in the presence of metabolites. It is filed as biochemical. Particulars: physiological concentrations of metabolite; GPx1 from mammalian cells or human erythrocytes. The procedure: as §1
GPx activity in GDH1 knockdown cells.

In data set [5] the test system is H1299 and MDA-MB231 cells. As to the kind of experiment: Fumarate, GPx activity and ROS levels in R162-treated cells. In kind it is cell-based, human. Here is the method:
as §1

For data set [6], the system named is GDH1 knockdown cells (H1299, MDA-MB231). As to the kind of experiment: Rescue experiments in GDH1 knockdown cancer cells. It is filed as cell-based, human. The procedure:
(§2) Adherent cells or leukemia cells were seeded in six-well plate, and cell numbers were determined by trypan blue exclusion using TC10 automated cell counter (Bio-Rad).

Data set [7] deals with H1299 GDH1 knockdown xenograft. As to the kind of experiment: NAC rescue in H1299 GDH1 knockdown xenograft mice. In kind it is in vivo. Particulars: NAC 10 mg/ml drinking water.
Description: Nude mice (athymic nu/nu, female, 4-6 weeks old; Harlan) were subcutaneously injected with H1299 cells harboring empty vector on the left flank, and cells with stable knockdown of GDH1 on the right flank, respectively. For the NAC rescue experiment, mice of the NAC rescue group were treated with NAC drinking water at 10 mg/ml from 3 days after H1299-GDH1 shRNA cells injection for 42 days. […] Tumor growth was recorded by measurement of two perpendicular diameters of the tumors, and tumor size was calculated. The tumors were harvested and weighed at the experimental endpoint.
Nude mice were subcutaneously injected with control H1299 cells harboring empty vector or GDH1 knockdown cells. NAC at a concentration of 10 mg/ml was administered via drinking water to half of the mice injected with GDH1 knockdown cells.
Data set [8] addresses T3, 6-phosphogluconate dehydrogenase (6PGD) (Homo sapiens, UniProt P52209).
T3 sequence (P52209 1-483): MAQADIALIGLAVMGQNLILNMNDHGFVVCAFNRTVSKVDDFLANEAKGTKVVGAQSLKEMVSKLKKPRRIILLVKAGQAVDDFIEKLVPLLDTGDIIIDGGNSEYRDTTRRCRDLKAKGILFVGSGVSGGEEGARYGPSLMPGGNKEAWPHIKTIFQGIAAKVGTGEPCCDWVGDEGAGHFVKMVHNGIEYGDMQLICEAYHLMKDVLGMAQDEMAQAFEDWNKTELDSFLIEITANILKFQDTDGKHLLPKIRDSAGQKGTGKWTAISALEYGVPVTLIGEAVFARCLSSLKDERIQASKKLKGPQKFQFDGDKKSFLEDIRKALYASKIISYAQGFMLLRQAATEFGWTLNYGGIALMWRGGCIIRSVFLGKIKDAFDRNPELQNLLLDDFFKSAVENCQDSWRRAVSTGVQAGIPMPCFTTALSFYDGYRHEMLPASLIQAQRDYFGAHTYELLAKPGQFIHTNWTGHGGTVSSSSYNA
In words: 6PGD enzyme activity in vitro. In kind it is biochemical.

For a further data set, the target named is T4, fumarate hydratase (FH) (Homo sapiens, UniProt P07954).
T4 sequence (P07954 45-510): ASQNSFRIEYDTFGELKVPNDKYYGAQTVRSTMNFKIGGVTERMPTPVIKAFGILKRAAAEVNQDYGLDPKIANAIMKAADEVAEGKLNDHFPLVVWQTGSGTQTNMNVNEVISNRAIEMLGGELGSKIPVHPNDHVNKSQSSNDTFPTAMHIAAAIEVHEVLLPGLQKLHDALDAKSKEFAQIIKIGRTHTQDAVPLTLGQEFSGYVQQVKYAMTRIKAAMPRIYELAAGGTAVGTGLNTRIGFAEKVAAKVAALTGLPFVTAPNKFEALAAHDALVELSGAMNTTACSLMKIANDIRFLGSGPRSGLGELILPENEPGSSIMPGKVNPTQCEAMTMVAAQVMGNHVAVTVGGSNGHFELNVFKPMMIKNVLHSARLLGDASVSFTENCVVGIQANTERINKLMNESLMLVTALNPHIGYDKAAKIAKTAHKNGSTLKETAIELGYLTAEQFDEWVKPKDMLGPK
In words: FH enzyme activity in vitro. In kind it is biochemical.

Data set [9] deals with T1, GDH1. Particulars: cited from earlier work.
The target of data set [10] is T1, GDH1. As to the kind of experiment: Thermal melt shift assay. In kind it is binding. To be noted: increasing concentrations of R162. Here is the method: To examine the interaction between GDH1 and R162, a thermal melt shift assay was performed.
In the next data set the target is T5, mitochondrial GDH (Homo sapiens, UniProt P00367).
T5 construct: GDH activity in cancer cells treated with R162 (20 microM); endogenous in cells; host or cells: cancer cells (probably H1299 and MDA-MB231)
T5 sequence (P00367 54-558): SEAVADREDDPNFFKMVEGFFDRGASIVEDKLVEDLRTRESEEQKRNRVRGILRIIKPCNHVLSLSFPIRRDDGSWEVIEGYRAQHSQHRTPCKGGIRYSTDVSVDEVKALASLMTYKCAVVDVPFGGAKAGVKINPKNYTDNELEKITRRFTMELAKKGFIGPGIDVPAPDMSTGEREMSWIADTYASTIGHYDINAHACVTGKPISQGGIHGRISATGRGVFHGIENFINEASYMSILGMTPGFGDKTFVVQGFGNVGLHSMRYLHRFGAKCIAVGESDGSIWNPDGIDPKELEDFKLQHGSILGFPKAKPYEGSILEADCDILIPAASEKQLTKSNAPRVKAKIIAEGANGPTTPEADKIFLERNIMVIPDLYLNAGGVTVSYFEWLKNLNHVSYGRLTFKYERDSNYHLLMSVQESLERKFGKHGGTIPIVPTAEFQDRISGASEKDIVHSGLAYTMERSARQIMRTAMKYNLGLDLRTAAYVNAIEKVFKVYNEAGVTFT
As to the kind of experiment: GDH activity in cancer cells treated with compound. It is filed as cell-based. To be noted: compared with purpurin; R162 20 microM. The procedure: as §1

Data set [11] has as its system H1299 and MDA-MB231 cells. As to the kind of experiment: Cell proliferation assay (cell counting). It is filed as cell-based, human. Here is the method: as §2
The test system of data set [12] is human lung cancer, breast cancer, and leukemia cell lines. In words: Cell viability in cancer cell lines. In kind it is cell-based.
Data set [13] deals with HaCaT, MRC-5 and HFF cells. As to the kind of experiment: Cell viability in control proliferating human cells. It is filed as cell-based. To be noted: MRC-5, HFF control proliferative human cells.
The test system of data set [14] is primary leukemia cells from myeloid leukemia patients. As to the kind of experiment: Cell viability of primary leukemia cells. It is filed as cell-based, human.
Data set [15] concerns mononucleocytes in peripheral blood samples from healthy human donors. In words: Cell viability of mononucleocytes from healthy donors. It is filed as cell-based.
Data set [16] in a line: In vivo toxicity study (hematology, histopathology). The arrangement: species or system mice. Here is the method: The in vivo efficacy of R162 in the treatment of xenograft tumor mouse models was tested. For initial in vivo toxicity studies, 30 mg/kg/day of R162 was administered to mice for 30 days by intraperitoneal injection.
The next data set concerns H1299 xenograft. As to the kind of experiment: H1299 xenograft nude mice, R162 treatment. In kind it is in vivo. Here is the method: Nude mice (athymic nu/nu, female, 4-6 weeks old; Harlan) were subcutaneously injected with H1299 cells harboring empty vector on the left flank, and cells with stable knockdown of GDH1 on the right flank, respectively. For the NAC rescue experiment, mice of the NAC rescue group were treated with NAC drinking water at 10 mg/ml from 3 days after H1299-GDH1 shRNA cells injection for 42 days. To evaluate the efficacy of R162, the drug was administered from a day after H1299 cells injection by daily intraperitoneal injection of 30 mg/kg for 35 days. Fifty percent of DMSO in PBS was as a diluent control. Tumor growth was recorded by measurement of two perpendicular diameters of the tumors, and tumor size was calculated. The tumors were harvested and weighed at the experimental endpoint. Tumor proliferation was determined by Ki-67 IHC staining.
An in vivo R162 treatment was performed using H1299-xenograft nude mice. A day after xenograft injection, mice were divided into two groups (n=8 per group) and treated with either R162 ([…]) or control DMSO for 35 days.

Setting [17] is: R162 20 mg/kg/day for 35 days vs control DMSO.

Entries after “also recorded” stand apart in the source; their conditions may differ.

T1 sequence (P00367 54-558): as above

For orientation: Ki means a measure of affinity in units of concentration, obtained from inhibition or displacement. As usually defined, the Kd is the constant that tells how readily two partners part at equilibrium. For the compound `O=C1c2ccccc2C(=O)c2c(O)c(O)cc(O)c21` [purpurin, reference compound], at GDH1 [1], the “potency and specificity for GDH1 inhibition in comparison of purpurin, R162 and EGCG” value was “more potent and specific”; the “inhibitory effect on GDH1 enzyme activity in vitro” value is reported as “dramatic inhibitory effects”. Moreover, the Ki at GDH1 [1] (recombinant, purified active GDH1, in vitro GDH activity assay) was 1.9 ± 0.26 µM. The Kd at GDH1 [2] amounted to 11.5 ± 1.17 µM. Besides, the cell permeability result in the data set “Cell permeability” is reported as “not cell permeable”.
In the case of `O=C(O)/C=C/C(=O)O` [fumarate], on GPx1 [3], the “retention of 14C-labeled metabolite on GPx1” value was “retained on GPx1”. The Kd at GPx1 [3] (read-out: Kd value of the GPx1-fumarate interaction) turned out to be 75.5 ± 5.22 µM. Moreover, the “activity of purified human GPx1” value on GPx1 [4] is “significantly increased”.
`CC(=O)N[C@@H](CS)C(=O)O` [NAC, N-acetylcysteine]: in data set [5] (R162-treated H1299 and MDA-MB231 cells), the “rescue of R162 effects (fumarate, GPx activity, ROS, cell proliferation)” value is given as “significantly rescued”. In data set [6], the “rescue of increased ROS” value was “significantly rescued” and the “rescue of reduced cell proliferation” value is on record as “significantly rescued”. Besides, in data set [7], the “rescue of attenuated tumor growth” value is reported as “partially rescued”.
For the compound `O=C(O[C@@H]1Cc2c(O)cc(O)cc2O[C@@H]1c1cc(O)c(O)c(O)c1)c1cc(O)c(O)c(O)c1` [EGCG, epigallocatechin gallate], the “effect on activity of 6PGD” value in [8] was “significantly affected activity”. On fumarate hydratase (FH), the “effect on activity of FH” value is on record as “significantly affected activity”. In addition, the “GDH1 inhibition as reported” value at GDH1 [9] is “reported to inhibit GDH1 activity”.
`C=CCc1ccc2c(c1O)C(=O)c1ccccc1C2=O` [R162, 2-allyl-1-hydroxyanthracene-9,10-dione]: the “mode of inhibition (Lineweaver-Burk plot)” value at GDH1 [1] (different concentrations of GDH1 substrate alpha-KG) is listed as “mixed model inhibitor”. For the same compound, on GDH1 [1], the “potency and specificity for GDH1 inhibition in comparison of purpurin, R162 and EGCG” value was “more potent and specific”; the “inhibitory effect on GDH1 enzyme activity in vitro” value is reported as “potent GDH1 inhibitor”. The “melting temperature (Tm) of GDH1” value at GDH1 [10] was “raised the melting temperature (Tm) in a dose-dependent manner”. Further, in the data set “Cell permeability”, the cell permeability result is “more cell-permeable than purpurin”. Besides, the “inhibitory effect on mitochondrial GDH activity in cancer cells” value at mitochondrial GDH is recorded as “more potent inhibitory effects”. For the same compound, in data set [5] (H1299 and MDA-MB231 cells), the GPx activity result was “attenuated GPx activity” and the intracellular fumarate levels entry is “decreased intracellular fumarate levels”. In [5] (cancer cells (H1299, MDA-MB231) treated with R162), the ROS levels entry is given as “elevated ROS levels; also recorded: increased ROS levels”. Besides, in [11], the cell proliferation result was “reduced cell proliferation”. Also, the cell viability entry in [12] was “attenuated cell viability”. Also, in data set [13], the cell viability result is “but not in human proliferating cells”. The cell viability result in data set [14] is listed as “decreased cell viability”. Also, the cell viability entry in [15] was “did not affect cell viability”. In addition, the histopathological change entry in [16] (30 mg/kg/day for 30 days, intraperitoneal, vs vehicle) is recorded as “did not result in a significant histopathological change”. Further, in data set [16] (mice, 30 mg/kg/day), the Basophils is 0.105 ± 0.06 ×10^3/μl, the Eosinophils is 0.21 ± 0.07 ×10^3/μl, the HCT was determined as 45.95 ± 3.74% and the HGB stood at 11.1 ± 1.55 g/dL. In data set [16] (mice, 30 mg/kg/day), the LYM is reported as 3.145 ± 0.10 ×10^3/μl, the MCH was determined as 13.35 ± 0.91 pg, the MCHC turned out to be 24.1 ± 1.41 g/dL and the MCV was found to be 55.35 ± 0.49 fL. In data set [16] (mice, 30 mg/kg/day), the MONO is on record as 0.165 ± 0.007 ×10^3/μl, the MPV came to 6.05 ± 0.21 fL, the NEU is reported as 1.71 ± 0.18 ×10^3/μl and the RBC is 8.3 ± 0.60 ×10^6/μl. Further, in data set [16] (mice, 30 mg/kg/day), the RDW is reported as 18.5 ± 0.56% and the WBC was 5.33 ± 0.41 ×10^3/μl. Moreover, in the data set with H1299 xenograft (setting [17]), the tumor growth result is on record as “significantly decreased” and the tumor masses result is reported as “significantly decreased”. Also, in the data set with H1299 xenograft (xenograft nude mice), the “GDH1 activity in resected tumors” value is recorded as “effectively inhibited GDH1 activity”.
